Experiment [1] deals with supranuclear organization of melanosomes in ex-vivo skin. As to the kind of experiment: Microparasol supranuclear organization in ex-vivo skin (light and electron microscopy). The conditions noted are these: 0.5% (light microscopy) or 1% (electron microscopy), 48 hours. Format: cell-based, human. How it is done: 6 mm diameter punch biopsies were obtained from a person (light microscopy) and a person (electron microscopy) […]. They were cultivated on culture medium containing 50% of DMEM 1 g/L glucose (Lonza) and 50% of Ham's-F12 (Lonza) supplemented with 10% of FBS (Lonza), 2 mM of L-glutamine (Lonza) and 100 μg/ml of PRIMOCIN™ (InvivoGen). Skin biopsies were maintained at 37° C. in a humidified atmosphere containing 5% of CO2.
The stock solution of peptide compound SEQ ID NO: 7 was diluted at 0.5% or 1% before use. The biopsies were treated, or not, in duplicate, twice a day with 0.5% (light microscopy) or 1% (electron microscopy) of peptide compound SEQ ID NO: 7 for 48 hours.
After skin culture, tissues were fixed for 4 hours in buffered 10% formalin. Samples were transferred to baths with ethanol progressively concentrated to remove water, then followed by two baths of xylene to remove the alcohol, and finally embedded in molten paraffin wax. Embedded skin biopsies were then cut with a microtome (Shandon) into 4 μm thick sections and placed on SUPERFROST PLUS™ slides (Thermo Scientific).
Sections were deparaffinized and rehydrated with several successive xylene, alcohol and water baths. Then, 100 μl of Stock solution were added on each section and slides were incubated 10 minutes at 60° C. […]

Experiment [2] deals with dynactin subunit p150Glued. As to the kind of experiment: Expression of p150Glued in ex-vivo human skin biopsies (immunostaining). Format: cell-based. The conditions noted are these: 100 ppm stock diluted at 1%, twice a day, 48 hours. The procedure: Samples of ex-vivo human skin biopsies from a person, were cultured at the air/liquid interface. The samples were treated twice a day with a stock solution of peptide SEQ ID NO: 7 at 100 ppm, diluted at the 1%, for 48 hours.
Immunostaining was then performed by means of an antibody directed to p150Glued subunit (REF.Santacruz sc-9804), followed by a secondary antibody, coupled with a green fluorescent marker (REF Invitrogen, A11055). The skin sections were then examined using Nikon® Eclipse 80i microscope.
Quantification was carried out with VOLOCITY® image analysis software.

Experiment [3] deals with keratinocytes containing melanosomes (NHK/NHEM co-culture). As to the kind of experiment: Frequency of keratinocytes containing melanosomes in NHK/NHEM co-culture after p150Glued siRNA. Format: cell-based, human. The conditions noted are these: after 10 nM p150Glued siRNA, 48 hours. The procedure:
Normal human primary keratinocytes (NHK) and normal human epidermal melanocytes (NHEM) were co-cultured (ratio: 1 melanocyte/4 keratinocytes) in Keratinocyte Serum Free Medium (KSFM, GIBCO) supplemented with 50 μg/ml bovine pituitary extract, 5 ng/ml human recombinant EGF (GIBCO) and 100 μg/ml Primocin™ (INVIVOGEN). Cells were maintained at 37° C. in a humidified atmosphere containing 5% CO2.
NHK and NHEM cells co-seeded for 48 hours were treated, or not, in duplicate, once with 10 nM of p150Glued-specific siRNA.
Cells were then treated, or not, in duplicate, twice a day for 48 hours with a solution of peptide compound SEQ ID NO: 7 at 100 ppm, diluted at 0.5% or 1% before use, without medium change.
Cells were rinsed with PBS and fixed with cold methanol for 4 minutes. Cellular membranes were permeabilized using 0.1% X-100 Triton (Fisher Scientific) for 10 minutes. Unspecific binding sites were blocked, then cells were incubated with the primary antibodies directed to melanosomes (mouse monoclonal anti-“pmel17” Abcam, ab34165 and rabbit monoclonal anti “keratin-14” Abcam, ab51054) diluted in PBS, for 1 hour and a half, under agitation, at room temperature, in a damp room. […]
Three images per condition were analyzed. […] The frequency of keratinocyte containing melanosomes was evaluated and expressed in percentage. […]

For experiment [4], the system named is cyclobutane pyrimidine dimers (CPDs) in NHEM. As to the kind of experiment: Amount of cyclobutane pyrimidine dimers (CPDs) in melanocytes after UVB (immunostaining). The conditions noted are these: UVB 75 mJ/cm^2. Format: cell-based, human. How it is done:
DNA damages induced by UVB radiation can be monitored by quantifying the amount of cyclobutane pyrimidine dimers (CPDs), which are formed after conformational changes in the DNA structure. […] The quantification of CPDs was carried out by immunohistochemical assay.
NHEM (normal human epidermis melanocytes) were grown in Melanocyte Growth Medium (PromoCell) supplemented with 1 ng/ml human basic fibroblast growth factor, 52 μg/ml medium bovine pituitary extract, 0.5 μg/ml hydrocortisone, 5 μg/ml human recombinant insulin, 10 ng/ml phorbol 12-myristate 13-acetate (PMA) and 100 μg/ml of PRIMOCIN (In vivoGen). When the cells were sub-cultured for the experiment, the same medium depleted in PMA was used. Cells were maintained at 37° C. in a humidified atmosphere containing 5% of CO2.
Cells were treated, or not, in duplicate, twice a day for 48 hours with a solution of peptide compound SEQ ID NO: 7 at 100 ppm, diluted at 0.5% or 1% before use. Then, they were irradiated, or not, with a 75 mJ/cm^2 UVB dose using a specific oven to ensure the homogeneity of the treatment. […]
Three images per condition were analyzed. Each picture was converted in grey levels and analyzed with Image-Pro Analyzer 6.3 software (MediaCybernetics, Inc.) which generated a histogram representing the number of pixels per intensity. The sum of all intensities was calculated. […]

For experiment [5], the system named is normal human epidermal melanocytes (NHEM). As to the kind of experiment: Comet assay on NHEM cells irradiated with UVB. Format: cell-based. The note with it: peptide 1% (0.5 ppm) 24 hours pretreatment + UVB 30 mJ/cm^2. The procedure:
(§1) NHK and NHEM were placed in culture for 24 hours in the presence of a solution of peptide compound SEQ ID NO: 7 at 50 ppm diluted at 1% before use, then irradiated with UVB radiation in an amount of 30 mJ/cm^2 for NHEM and 60 mJ/cm^2 for NHK. A control condition was also used without a peptide active agent. The cells were then detached from their support by trypsin, then centrifuged at 900 rpm for 5 minutes in order to concentrate them and count them.
(§2) A defined number of cells (25,000 cells) was then embedded in a Low Melting agarose gel at 0.75%, then deposited on a glass slide previously coated with 1% agarose. The slides were then immersed in a lysis solution for 1 hour 30 minutes at 4° C., then in an alkaline solution for 20 minutes at 4° C. The cells were thus lysed and the DNA was denatured. The slides were immersed in an electrophoresis solution before an electric field (20 V-250 mA) is applied. The DNA thus denatured was subjected to migration in the agarose gel at 4° C. The application of a fluorescent DNA dye on the slides (propidium iodide at 2 μg/ml) makes it possible to observe, under the microscope, DNA appearing in the form of comets if it has been damaged.
(§3) Finally, quantification software makes it possible to determine the Tail Moment, means applied to each condition tested. […]

Experiment [6] relates to normal human keratinocytes (NHK). Description: Comet assay on NHK cells irradiated with UVB. Format: cell-based. How it is done:
as §1, §2, §3

Results on one substance are retold here after US9364414B2, “Method to protect skin from ultraviolet radiation using novel peptides involved in the improvement of microparasol organization in keratinocytes” (ISP Investments Inc., priority 2011, dated 2016).

Ends that are not written are not given here.

With “Asp-Leu-Lys-Lys-NH2 (DLKK-NH2) [SEQ ID NO: 7]”, the “supranuclear organization of melanosomes above the nucleus” value in experiment [1] is given as “better supranuclear organization of melanosomes”. Also, the “increase of the dynactin subunit p150Glued staining” value in experiment [2] is recorded as 80%. The “frequency of keratinocyte containing melanosomes compared to the control” value is “partially restored” in experiment [3] (peptide 0.5% (0.5 ppm)) and “fully restored” in experiment [3] (peptide 1% (1 ppm)). The “change of CPDs after UVB compared to the non treated condition” value in experiment [4] (pretreated 48 hours with 0.5% (0.5 ppm)) is given as −39%; in experiment [4] (pretreated 48 hours with 1% (1 ppm)), −59%. Further, the “reduction in Tail Moment versus UVB condition” value came to 55% in experiment [5] and 70% in experiment [6] (peptide 1% (0.5 ppm) 24 hours pretreatment + UVB 60 mJ/cm^2). The “Tail Moment” value in experiment [6] (peptide 1% (0.5 ppm) 24 hours pretreatment + UVB 60 mJ/cm^2, UVB alone 170.27, control 1.66) is recorded as 51.36.
